Non-standard residues stand in square brackets, D forms with d. Residues, ends and D or L forms follow the SMILES beside them. *: point of attachment. AFC = O=c1cc(C(F)(F)F)c2ccc(N*)cc2o1; AMC = Cc1cc(=O)oc2cc(N*)ccc12
The compounds below were run on plasma proteases.

SMILES | Cleavage / fluorescence in plasma in the absence of LF | Specificity for LF | Hydrolysis in plasma without LF
CC(=O)N[C@@H](CCCNC(=N)N)C(=O)N[C@@H](CCCNC(=N)N)C(=O)N[C@@H](CCCCN)C(=O)N[C@@H](CCCCN)C(=O)N[C@H](C(=O)N[C@@H](Cc1ccc(O)cc1)C(=O)N1CCC[C@H]1C(=O)Nc1ccc2c(C)cc(=O)oc2c1)C(C)C [LBL 10079] (Ac-RRKKVYP-{AMC}) | dramatic increase in fluorescence | non-specifically cleaved by plasma proteases | –
CC(=O)N[C@@H](CCCNC(=N)N)C(=O)N[C@H](CCCNC(=N)N)C(=O)N[C@H](CCCCN)C(=O)N[C@H](CCCCN)C(=O)N[C@H](C(=O)N[C@@H](Cc1ccc(O)cc1)C(=O)N1CCC[C@H]1C(=O)Nc1ccc2c(C)cc(=O)oc2c1)C(C)C [LBL 10081] (Ac-R[dR][dK][dK]VYP-{AMC}) | minimal increase in hydrolysis | specific for LF | minimal increase in hydrolysis
CC(=O)N[C@H](CCCNC(=N)N)C(=O)N[C@H](CCCNC(=N)N)C(=O)N[C@H](CCCCN)C(=O)N[C@H](CCCCN)C(=O)N[C@H](C(=O)N[C@@H](Cc1ccc(O)cc1)C(=O)N1CCC[C@H]1C(=O)Nc1ccc2c(C)cc(=O)oc2c1)C(C)C [LBL 10097] (Ac-[dR][dR][dK][dK]VYP-{AMC}) | minimal increase in hydrolysis | specific for LF | minimal increase in hydrolysis
CC(=O)N[C@@H](CCCNC(=N)N)C(=O)N[C@H](CCCNC(=N)N)C(=O)N[C@H](CCCCN)C(=O)N[C@H](CCCCN)C(=O)N[C@H](C(=O)N[C@@H](Cc1ccc(O)cc1)C(=O)N1CCC[C@H]1C(=O)Nc1ccc2c(C(F)(F)F)cc(=O)oc2c1)C(C)C [LBL 10108] (Ac-R[dR][dK][dK]VYP-{AFC}) | neither peptide was cleaved | – | –

— US9932570B2 (priority 2015, dated 2018)
